The experiment has as its target T1, Histone-arginine methyltransferase CARM1 (Mus musculus, UniProt Q9WVG6).
T1 sequence (Q9WVG6 whole entry): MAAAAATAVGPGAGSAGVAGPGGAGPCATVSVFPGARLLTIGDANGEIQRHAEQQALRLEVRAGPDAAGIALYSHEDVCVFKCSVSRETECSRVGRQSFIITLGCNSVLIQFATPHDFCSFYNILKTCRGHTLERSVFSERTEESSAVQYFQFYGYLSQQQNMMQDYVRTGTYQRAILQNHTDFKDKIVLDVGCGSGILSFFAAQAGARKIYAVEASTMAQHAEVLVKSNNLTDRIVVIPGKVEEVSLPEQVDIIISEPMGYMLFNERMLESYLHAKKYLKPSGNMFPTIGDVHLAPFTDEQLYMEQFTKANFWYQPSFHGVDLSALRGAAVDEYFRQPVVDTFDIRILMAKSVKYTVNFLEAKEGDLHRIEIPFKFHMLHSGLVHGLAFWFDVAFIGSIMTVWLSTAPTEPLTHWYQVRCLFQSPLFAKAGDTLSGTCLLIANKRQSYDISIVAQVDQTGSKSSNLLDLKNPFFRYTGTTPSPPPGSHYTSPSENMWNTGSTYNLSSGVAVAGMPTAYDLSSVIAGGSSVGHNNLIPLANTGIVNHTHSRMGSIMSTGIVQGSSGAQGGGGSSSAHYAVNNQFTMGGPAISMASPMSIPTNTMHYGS
The experiment can be described thus: Inhibition of CARM-1 Enzymatic Activity. Particulars: pH 9; 22 °C. The method, then: Histone H3 is used as the substrate for CARM-1 enzyme, and the methylation is monitored using tritiated S-Adenosyl-Methionine (SAM) as a methyl donor. The enzyme mixture containing test compound is left to pre-incubate for 10 minutes, followed by the addition of Histone H3/[3H] SAM mixture. After incubation, the mixture is spotted onto P30 Filtermat paper. The incorporated radioactivity is read using a Wallac Microbeta counter. The data is analyzed to generate IC50 values.

Molecules are shown by their SMILES. Where only a bound is given, the exact number is not on record here.

As usually defined, the IC50 is the midpoint of a concentration-inhibition curve. `COc1ccccc1CNC(=O)c1cc(C(F)(F)F)nn1-c1cccc2c1CN(C(=O)[C@H](C)N)C2` [1-{2-[(2S)-2-aminopropanoyl]-2,3-dihydro-1H-isoindol-4-yl}-N-[(2-methoxyphenyl)methyl]-3-(trifluoromethyl)-1H-pyrazole-5-carboxamide]: the IC50 was more than 10 µM.

On to `C[C@H](N)C(=O)NCc1cccc(-n2nc(C(F)(F)F)cc2C(=O)NCc2ccccc2)c1`, for which the IC50 turned out to be 0.08 µM.

For the molecule `C[C@H](N)C(=O)NCc1cc(-n2nc(C(F)(F)F)cc2C(=O)NCc2ccccn2)cs1` [1-(5-{[(2S)-2-aminopropanamido]methyl}thiophen-3-yl)-N-(pyridin-2-ylmethyl)-3-(trifluoromethyl)-1H-pyrazole-5-carboxamide], the IC50 was 3.35 µM.

For the origin of these results see BindingDB's records for doi:10.1016/j.bmcl.2008.12.075 (Methylgene, 2009).
